Experimental data as given in patent US7989478B2, “Cinnamoyl compound and use of the same” (Sumitomo Chemical Company, Limited, priority 2003, dated 2011).

What was measured:
[1] = test system: mRNA of Type I collagen gene in renal glomerulus; assay: mRNA of Type I collagen gene in renal glomerulus of anti-Thy-1 antibody-administered rats (improvement of chronic renal failure); format: in vivo, rat; settings: for ability to improve chronic renal failure: anti-Thy-1 antibody rats; for mRNA of collagen gene: Type I collagen amount/GAPDH amount, renal cortex, anti-Thy-1 antibody +
Method: IgG was purified from an ascites-lyophilized powder (CEDARLANE, lot No. 05122) containing an anti-rat CD90 (Thy1.1) monoclonal antibody using MAbTrap kit (Amersham Biosciences, catalogue No. 17-1128-01).
6 ml of a binding buffer was added to 3 ml of ascites to sufficiently recover it, and this was passed through a 0.22 μm filter. The resulting solution was applied to a pre-bufferized column, and the column was then washed with 10 ml of a binding buffer. Thereafter, the column was eluted with 5 ml of an elution buffer. From washing, each 1 ml was fractionated, and the protein concentration of each fraction was measured using bovine serum albumin as a standard. A single peak was confirmed from an elution pattern, and an IgG fraction was dialyzed against a physiological saline overnight at 4° C. The protein concentration of the resulting anti-Thy-1 antibody (IgG) was calculated.
The present compounds represented by the compound numbers (28a) (hereinafter, referred to as the present compound (28a)), the present compound represented by a compound number (30a) (hereinafter, referred to as the present compound (30a)), the present compound represented by a compound number (33a) (hereinafter, referred to as the present compound (33a)), the present compound represented by a compound number (10e) (hereinafter, referred to as the present compound (10e)), the present compound represented by a compound number (18e) (hereinafter referred to as the present compound (18e)), the present compound represented by a compound number (31e) (hereinafter, referred to as the present compound (31e)) and a corn oil which is a medium were weighed. These were mixed using a mortar and a pestle to prepare a […]. Using four 7-week old male Wistar rats [Nippon Charles River] per group, 60 μg/ml of the anti-Thy-1 antibody (IgG) or a physiological saline was intravenously injected via a tail vein at 5 ml/kg. […] A dose of the present compound was 15 mg/kg/day.
On the next day of final administration, a rat reared as described in the above (2) was slaughtered by collection of whole blood, and kidneys were isolated. A whole RNA was separated from the cortex of the isolated kidney using RNeasy Mini Kit (QIAGEN, catalogue No. 74106). To 5 μl (50 ng) of the separated whole RNA were added 1 μl of 20 μM oligo dT and 4 μl of RNase-free distilled water. After the mixture was incubated at 65° C. for 5 minutes, it was immediately ice-cooled. To 10 μl of the solution were added 4 μl of 5× buffer, 2.4 μl of MgCl2, 1 μl of 10 mM dNTP, 1 μl of RNasin, 1 μl of Improm II and 0.6 μl of RNase-free distilled water (all available from Promega), and a reverse transcription reaction was performed under the condition of at 25° C. for 5 minutes, at 42° C. for 1 hour, and at 70° C. for 15 minutes.
Into 5 μl of the reverse transcription reaction solution were mixed each 2 μl of each 1.25 pmol/μl of primers represented by SEQ ID NOS: 3 and 4, 1.25 μl of a probe (FAM-ctcgccttca tgcgcctgct agc-TAMRA) for detecting DNA of a Type I collagen gene represented by SEQ ID No:5, each 0.25 μl of Rodent GAPDH primers, 0.25 μl of a Rodent GAPDH probe, 12.5 μl of TaqMan Universal PCR Master Mix (all available from Applied Biosystem) and 1.5 μl of sterilized water in a well of Optical 96-Well Reaction Plate (Applied Biosystem, catalogue No. N801-0560). As a standard, in place of 5 μl of the reverse transcription reaction solution, each 5 μl of 500, 250, 125, 62.5, 31.25, 15.625 ng/μl rat renal cortex cDNA which had been prepared in advance was used. Thereafter, using Gene Amp 7900 (Applied Biosystem), PCR was performed under the condition of at 50° C. for 5 minutes, and 40 cycles in which one cycle is at 95° C. for 15 seconds and at 60° C. for 1 minute. […]

[2] = test system: ability of TGF-β to promote transcription of a Type I collagen gene; assay: Inhibition of the ability of TGF-β to promote transcription of a Type I collagen gene (COL-Luc reporter gene assay); format: cell-based; settings: final concentration 1 μM; TGF-β added; normal human fetal skin fibroblast transfected with COL-Luc; 40 hours; read-out: Inhibition percentage
Method: 1×10^8 cells of a normal human fetal skin fibroblast (Clontech, catalogue No. CC-2509) were cultured at 37° C. overnight under 5% CO2 atmosphere. After the cultured cells were washed with a sodium phosphate buffer (hereinafter, referred to as PBS) twice, 3 ml of PBS was added thereto and the cells were scraped away the wall of a vessel using a cell scraper (Nalgen, catalogue No. 179693). The scraped cells were collected by centrifugation (1,500 rpm, 4° C., 15 min), and these were suspended in 20 ml of PBS and centrifuged again. To the resulting precipitates were added 11 ml of Solution 2 and 4.8 μl of pronase of DNA Extraction Kit (Stratagene, catalogue No. 200600). After shaken at 60° C. for 1 hour, the resulting mixture was allowed to stand in ice for 10 minutes. Then, 4 ml of Solution 3 of the kit was added to the mixture. After mixed, the mixture was allowed to stand in ice for 5 minutes and then centrifuged (3,000 rpm, 4° C., 15 min) to recover a supernatant. To the recovered supernatant was added 2 μl of RNase per 1 ml of the supernatant and the mixture was allowed to stand at 37° C. for 15 minutes. To the mixture was added 2-fold volume of ethanol. After mixed, a white thread-like substance (genomic DNA) appeared and the substance was recovered. The recovered genomic DNA was washed with 70% ethanol and then air-dried. The air-dried genomic DNA was dissolved in 500 μl of 10 mM Tris-HCl, 1 mM EDTA (pH 8.0) (hereinafter, referred to as TE).
The resulting genomic DNA solution (the amount equivalent to 1 μg of genomic DNA), each 1 μl (10 pmol/μl) of an oligonucleotide consisting of the nucleotide sequence represented by SEQ ID No:1 and an oligonucleotide consisting of the nucleotide sequence represented by SEQ ID No:2, 29 μL of distilled water, 5 μl of the buffer attached to TaKaRa LA Taq (TAKARA SHUZO, catalogue No. RR002A), 5 μL of a Mg^2+ solution, 5 μL of a dNTP mixture and 0.5 μl of TaKaRa LA Taq (TAKARA SHUZO, catalogue No. RR002A) were mixed. After the resulting mixed solution was incubated at 94° C. for 5 minutes, the mixed solution was subjected to 30 cycles, in which one cycle consists of incubation at 94° C. for 1 minute, at 60° C. for 1 minute and then at 72° C. for 1 minute. The mixed solution was electrophoresed on a 2% agarose gel to recover about 0.5 kb of a DNA. The recovered DNA was treated with phenol/chloroform and then precipitated with ethanol to recover the DNA. The resulting DNA was dissolved in ultrapure water. To this solution were added 2.5 μl of NheI and 2.5 μl of HindIII, and then incubated at 37° C. for 3 hours. Then, the solution was electrophoresed on a 2% agarose gel to recover about 3.5 kb of a DNA. The recovered DNA was precipitated with ethanol to recover again the DNA (hereinafter, referred to as the collagen promoter DNA).
On the other hand, the vector pGL3 (Promega, catalogue No. E1751) having the nucleotide sequence encoding firefly luciferase was digested with NheI and HindIII, and then subjected to agarose gel electrophoresis as described above to recover about 5 kb of a DNA. The recovered DNA was precipitated with ethanol to recover the DNA again. To the recovered DNA were added 44 μl of distilled water, 5 μl of Buffer attached to Alkaline Phosphatase (TAKARA SHUZO, catalogue No. 2120A) and 1 μl of Alkaline Phosphatase (TAKARA SHUZO, catalogue No. 2120A). The mixed solution was incubated at 65° C. for 30 minutes. Then, the mixed solution was treated with phenol/chloroform twice, and precipitated with ethanol to recover the DNA (hereinafter referred to as the Luc vector DNA). Then, after about 20 ng of the collagen promoter DNA and about 20 ng of the Luc vector DNA were mixed, the same amount of a DNA Ligation kit Ver2 enzyme solution was added and this was incubated overnight at 16° C. To the mixed solution was added Escherichia coli 5Hdα (TOYOBO, catalogue No. DNA-903), this was allowed to stand in ice for 30 minutes, and then incubated at 42° C. for 45 seconds. […]

[3] = Example 5, 15 mg/kg/day orally for 7 days in corn oil
[4] = Table 4, 15 mg/kg/day orally for 7 days in corn oil, Wistar rats, control group 5.6, normal group 1.7, test results p < 0.01
[5] = Table 3, 15 mg/kg/day orally for 7 days in corn oil, Wistar rats, control group 3.4, normal group 1.9, test results p < 0.05

SMILES	ability to improve chronic renal failure [1, 3]	mRNA of collagen gene [1, 4]	inhibition at 1 µM [2] [%]	ability to improve chronic renal failure ([1]; Example 6, orally for 7 days in 0.5% aqueous methylcellulose solution)	mRNA of collagen gene ([1]; Table 5 (Example 6), orally for 7 days in 0.5% aqueous methylcellulose solution, 10 Wistar rats per group, control group 2.1, normal group 1.0, test results p < 0.01)	mRNA of collagen gene [1, 5]
COCC(=O)Nc1cccc(C=CC(=O)c2c(O)c3ccccc3[nH]c2=O)c1 [Compound No. (18e), 4-hydroxy-3-[3-[3-(methoxyacetylamino)phenyl]-1-oxo-2-propenyl]-2(1H)-quinolinone]	have the ability to improve chronic renal failure	1.9	≥ 70			
N#CCOc1cccc(C=CC(=O)c2c(O)c3ccccc3[nH]c2=O)c1 [Compound No. (10e), 4-hydroxy-3-[3-[3-(cyanomethoxy)phenyl]-1-oxo-2-propenyl]-2(1H)-quinolinone]	have the ability to improve chronic renal failure	2.0	≥ 70			
Cc1cc(O)c(C(=O)C=Cc2cccc(OCC(=O)O)c2)c(=O)n1C [Compound No. (37a), 4-hydroxy-3-[3-[3-(carboxymethoxy)phenyl]-1-oxo-2-propenyl]-1,6-dimethyl-2(1H)-pyridinone]				has the ability to improve chronic renal failure	1.5	
COC(=O)CNC(=O)c1ccc(C=CC(=O)c2c(O)cc(C)[nH]c2=O)cc1 [Compound No. (30a), 4-hydroxy-3-[3-[4-[[(methoxycarbonylmethyl)amino]carbonyl]phenyl]-1-oxo-2-propenyl]-6-methyl-2(1H)-pyridinone]	have the ability to improve chronic renal failure					2.4
COC(=O)CNC(=O)c1cccc(C=CC(=O)c2c(O)cc(C)[nH]c2=O)c1 [Compound No. (28a), 4-hydroxy-3-[3-[3-[[(methoxycarbonylmethyl)amino]carbonyl]phenyl]-1-oxo-2-propenyl]-6-methyl-2(1H)-pyridinone]	have the ability to improve chronic renal failure		≥ 70			2.0
COCCNC(=O)c1ccc(C=CC(=O)c2c(O)c3ccccc3[nH]c2=O)cc1 [Compound No. (31e), 4-hydroxy-3-[3-[4-[(2-methoxyethyl)aminocarbonyl]phenyl]-1-oxo-2-propenyl]-2(1H)-quinolinone]	have the ability to improve chronic renal failure	3.3	≥ 70			
